Results published in patent US10865203B2, “Ligands selective to alpha 6 subunit-containing GABAA receptors and their methods of use” (UWM Research Foundation, Inc., priority 2015, dated 2020).
Entries after “also recorded” stand apart in the source; their conditions may differ.

Key:
[1] = Pharmacokinetic study in rats, plasma and brain; conditions: for total concentration in rat brain tissue: nanoemulsion or suspension; for half-life: male, Wistar, rat, ip, 10 mg/kg
Text: Five pharmacokinetic studies have been performed; four in male Wistar rats and one in male Swiss mice. […] In a separate in vitro experiment, the rapid equilibrium dialysis assay was used to determine free fraction of DK-I-56-1 in rat plasma and brain tissue.

α6β3γ2 receptor = biological target: T1, α6β3γ2 receptor (Rattus norvegicus, UniProt P30191+P63079); assay: Electrophysiology in Xenopus oocytes, modulation of GABA currents; type: cell-based; conditions: for Emax: EC3-6 GABA currents, read-out: maximum efficacy, enhancement of the reference current; for selectivity for α6β3γ2 over other αxβ3γ2 receptors: modulation of GABA EC3 currents
T1 construct: expressed in transfected cells; host or cells: Xenopus laevis oocytes injected with subunit mRNA (3:1:5)
Procedure: Mature female Xenopus laevis (Nasco, Fort Atkinson, Wis., USA) were anaesthetized in a bath of ice-cold 0.17% Tricain (Ethyl-m-aminobenzoat, Sigma-Aldrich, St. Louis, Mo., USA) before decapitation and transfer of the frog's ovary to ND96 medium (96 mM NaCl, 2 mM KCl, 1 mM MgCl2, 5 mM HEPES; pH 7.5). Following incubation in 1 mg/mL collagenase (Sigma-Aldrich, St. Louis, Mo., USA) for 30 min, stage 5 to 6 oocytes were singled out of the ovary and defolliculated using a platinum wire loop. Oocytes were stored and incubated at 18° C. in NDE medium (96 mM NaCl, 2 mM KCl, 1 mM MgCl2, 5 mM HEPES, 1.8 mM CaCl2; pH 7.5) that was supplemented with 100 U per mL-1 penicillin, 100 μg per mL-1 streptomycin and 2.5 mM pyruvate. Oocytes were injected with an aqueous solution of mRNA. A total of 2.5 ng of mRNA per oocyte was injected. Subunit ratio was 1:1:5 for αxβγ2 (x=1, 2, 3, 5) and 3:1:5 for α4/6β3γ2 and αβδ receptors. Injected oocytes were incubated for at least 36 h before electrophysiological recordings. Oocytes were placed on a nylon-grid in a bath of NDE medium. For current measurements, the oocytes were impaled with two microelectrodes (2-3MΩ), which were filled with 2 M KCl. The oocytes were constantly washed by a flow of 6 mL per min-1 NDE that could be switched to NDE containing GABA and/or drugs. Drugs were diluted into NDE from DMSO solutions resulting in a final concentration of 0.1% DMSO. […] To test for modulation of GABA induced currents by compounds, a GABA concentration that was titrated to trigger 3-5% of the respective maximum GABA-elicited current of the individual oocyte (EC3-5) was applied to the cell together with various concentrations of tested compounds. All recordings were performed at room temperature at a holding potential of −60 mV using a Warner OC-725C TEV (Warner Instrument, Hamden, Conn., USA) or a Dagan CA-1B Oocyte Clamp or a Dagan TEV-200A TEV (Dagan Corporation, Mineapolis, Minn., USA). Data were digitized using a Digidata 1322A or 1550 data acquisition system (Axon Instruments, Union City, Calif., USA), recorded using Clampex 10.5 software (Molecular Devices, Sunnyvale, Calif., USA), and analyzed using Clampfit 10.5 and GraphPad Prism 6.0 (La Jolla, Calif., USA) software. Concentration-response data were fitted using the Hill equation. Data are given as mean±SEM from at least three oocytes of two batches.
For selected test compounds full dose response curves were recorded in α1-6β3γ2 receptors. For selected compounds, dose response curves in additional receptor subtypes (α1, 4, 6β3δ, α6β1, 2γ2, α1-6β3) were also obtained. For a wider panel of compounds, a two point screening pharmacology was obtained at 1 and 10 μM compound concentrations.

[2] = system: binary αxβ3 (x=1, 2, 3, 5) receptors; assay: Electrophysiology in Xenopus oocytes, binary receptors; type: cell-based, rat
Procedure: Mature female Xenopus laevis (Nasco, Fort Atkinson, Wis., USA) were anaesthetized in a bath of ice-cold 0.17% Tricain (Ethyl-m-aminobenzoat, Sigma-Aldrich, St. Louis, Mo., USA) before decapitation and transfer of the frog's ovary to ND96 medium (96 mM NaCl, 2 mM KCl, 1 mM MgCl2, 5 mM HEPES; pH 7.5). Following incubation in 1 mg/mL collagenase (Sigma-Aldrich, St. Louis, Mo., USA) for 30 min, stage 5 to 6 oocytes were singled out of the ovary and defolliculated using a platinum wire loop. Oocytes were stored and incubated at 18° C. in NDE medium (96 mM NaCl, 2 mM KCl, 1 mM MgCl2, 5 mM HEPES, 1.8 mM CaCl2; pH 7.5) that was supplemented with 100 U per mL-1 penicillin, 100 μg per mL-1 streptomycin and 2.5 mM pyruvate. Oocytes were injected with an aqueous solution of mRNA. A total of 2.5 ng of mRNA per oocyte was injected. Subunit ratio was 1:1:5 for αxβγ2 (x=1, 2, 3, 5) and 3:1:5 for α4/6β3γ2 and αβδ receptors. Injected oocytes were incubated for at least 36 h before electrophysiological recordings. Oocytes were placed on a nylon-grid in a bath of NDE medium. For current measurements, the oocytes were impaled with two microelectrodes (2-3MΩ), which were filled with 2 M KCl. The oocytes were constantly washed by a flow of 6 mL per min-1 NDE that could be switched to NDE containing GABA and/or drugs. Drugs were diluted into NDE from DMSO solutions resulting in a final concentration of 0.1% DMSO. Maximum currents measured in mRNA injected oocytes were in the microampere range for all receptor subtypes. […] Data were digitized using a Digidata 1322A or 1550 data acquisition system (Axon Instruments, Union City, Calif., USA), recorded using Clampex 10.5 software (Molecular Devices, Sunnyvale, Calif., USA), and analyzed using Clampfit 10.5 and GraphPad Prism 6.0 (La Jolla, Calif., USA) software. […]
For selected test compounds full dose response curves were recorded in α1-6β3γ2 receptors. […]

T1 sequence (P30191 20-453): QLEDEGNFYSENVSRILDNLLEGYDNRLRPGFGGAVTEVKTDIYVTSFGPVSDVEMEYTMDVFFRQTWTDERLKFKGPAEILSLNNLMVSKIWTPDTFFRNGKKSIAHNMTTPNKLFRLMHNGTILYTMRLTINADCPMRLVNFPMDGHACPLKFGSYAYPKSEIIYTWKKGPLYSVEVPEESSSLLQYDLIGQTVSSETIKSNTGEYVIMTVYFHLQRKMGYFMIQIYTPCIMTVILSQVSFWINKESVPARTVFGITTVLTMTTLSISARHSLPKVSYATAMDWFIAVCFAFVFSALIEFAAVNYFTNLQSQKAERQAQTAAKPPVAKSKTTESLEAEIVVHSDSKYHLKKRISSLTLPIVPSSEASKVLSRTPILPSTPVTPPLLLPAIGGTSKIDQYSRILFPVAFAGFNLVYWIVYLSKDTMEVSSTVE
T1 sequence (P63079 26-473): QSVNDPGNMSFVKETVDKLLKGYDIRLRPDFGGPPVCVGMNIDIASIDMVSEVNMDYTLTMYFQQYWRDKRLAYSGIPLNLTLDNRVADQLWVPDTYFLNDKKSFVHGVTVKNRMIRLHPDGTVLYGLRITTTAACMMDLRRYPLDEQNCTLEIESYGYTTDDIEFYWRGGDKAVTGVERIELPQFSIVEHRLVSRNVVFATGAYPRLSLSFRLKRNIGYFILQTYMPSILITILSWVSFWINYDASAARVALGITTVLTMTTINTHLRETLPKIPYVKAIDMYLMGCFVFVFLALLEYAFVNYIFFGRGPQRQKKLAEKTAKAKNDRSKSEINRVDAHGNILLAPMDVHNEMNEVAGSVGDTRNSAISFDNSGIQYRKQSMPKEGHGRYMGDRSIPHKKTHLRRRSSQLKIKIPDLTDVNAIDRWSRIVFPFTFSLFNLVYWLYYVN
T1 sequence (P18508 39-466 partner): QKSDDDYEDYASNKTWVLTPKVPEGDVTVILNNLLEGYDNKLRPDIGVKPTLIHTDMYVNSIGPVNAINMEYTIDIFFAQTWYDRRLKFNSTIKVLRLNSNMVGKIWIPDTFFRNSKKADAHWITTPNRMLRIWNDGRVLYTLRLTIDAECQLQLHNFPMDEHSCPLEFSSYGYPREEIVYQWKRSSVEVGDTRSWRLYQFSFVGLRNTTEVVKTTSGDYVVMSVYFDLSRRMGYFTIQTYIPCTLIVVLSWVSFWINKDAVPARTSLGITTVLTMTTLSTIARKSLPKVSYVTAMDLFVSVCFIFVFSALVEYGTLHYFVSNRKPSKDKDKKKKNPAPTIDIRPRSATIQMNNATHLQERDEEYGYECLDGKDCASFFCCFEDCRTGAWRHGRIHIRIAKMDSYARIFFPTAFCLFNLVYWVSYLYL

Structure (SMILES)	total concentration in rat brain tissue ([1]; 10 mg/kg i.p.)	Emax (α6β3γ2 receptor) [%]	selectivity for α6β3γ2 over other αxβ3γ2 receptors (α6β3γ2 receptor)	selectivity for α6β3γ2 over other αxβ3γ2 receptors (α6β3γ2 receptor; listed as compound 6)	efficacy in binary αxβ3 receptors [2]	time of maximum concentration in rat brain tissue ([1]; 10 mg/kg i.p.) [h]	free concentrations in rat brain tissue ([1]; 10 mg/kg i.p., estimated from free fraction) [nM]	half-life ([1]; brain) [h]	half-life ([1]; in vivo) [h]	maximum efficacy compared to the lead compounds (α6β3γ2 receptor)
COc1ccc(-n2nc3c4ccc(OC)cc4[nH]cc-3c2=O)cc1 [Compound 6, 7-Methoxy-2-(4-methoxyphenyl)-2,5-dihydro-3H-pyrazolo[4,3-c]quinolin-3-one]	high submicromolar concentrations	400 to 1000	preferentially modulate GABA currents of α6β3γ2 receptors; also recorded: pronounced selectivity for the α6β3γ2 receptor	selectively modulates α6-containing receptors; also recorded: (efficacy-) selective for α6β3γ2 receptors	low efficacy					
[2H]C([2H])([2H])Oc1ccc(-n2nc3c4ccc(OC)cc4[nH]cc-3c2=O)cc1 [DK-I-56-1, 7-Methoxy-2-(4-methoxy-d3-phenyl)-2,5-dihydro-3H-pyrazolo[4,3-c]quinolin-3-one]	micromolar concentrations					3	≥ 100	~4		
[2H]C([2H])([2H])Oc1ccc2c3nn(-c4ccc(OC)nc4)c(=O)c-3c[nH]c2c1 [DK-I-86-1, 7-Methoxy-d3-2-(6-methoxypyridin-3-yl)-2,5-dihydro-3H-pyrazolo[4,3-c]quinolin-3-one]	high submicromolar concentrations		preferentially modulates α6β3γ2 receptors; also recorded: selectivity was very good						~9	lower
COc1cccc(-n2nc3c4cc(Cl)ccc4[nH]cc-3c2=O)c1 [LAU 159, 8-Chloro-2-(3-methoxyphenyl)-2,5-dihydro-3H-pyrazolo[4,3-c]quinolin-3-one]		~400	preferentially modulate GABA currents of α6β3γ2 receptors; also recorded: pronounced selectivity for the α6β3γ2 receptor; also recorded: (efficacy-) selective for α6β3γ2 receptors		low efficacy					
COc1ccc(-n2nc3c4ccc(Br)cc4[nH]cc-3c2=O)cc1 [LAU 463, 7-Bromo-2-(4-methoxyphenyl)-2,5-dihydro-3H-pyrazolo[4,3-c]quinolin-3-one]		400 to 1000	preferentially modulate GABA currents of α6β3γ2 receptors; also recorded: pronounced selectivity for the α6β3γ2 receptor; also recorded: (efficacy-) selective for α6β3γ2 receptors		low efficacy					
